Among the test systems are HCC-2998 colon; HCT-15 colon; HT29 colon; M14 melanoma; MCF7 breast; OVCAR-3 ovarian; OVCAR-8 ovarian; RXF 393 renal; SN12C renal; SR leukemia.
What all share (assay): growth of human tumour cells (NCI), 48 h

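Grown in 96-well plates, cells were treated for 48 hours with each compound at five concentrations. Insufficient inhibition: endpoint recorded as highest concentration tested. The concentration for 50% growth inhibition is given as GI50. TGI: total growth inhibition.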

Consider `CC(=O)c1ccc2c(c1)c1cc(C(C)=O)ccc1n2CCNC(C)C`, for which the GI50 in the assay with HCC-2998 colon is 635 nM; in the assay on HCT-15 colon, 352 nM; with HT29 colon, 342 nM; in the assay with M14 melanoma, 358 nM; in the assay with MCF7 breast it was 294 nM; in the assay on OVCAR-3 ovarian, 506 nM. The GI50 in the assay with OVCAR-8 ovarian was 373 nM; with RXF 393 renal, 289 nM; in the assay on SN12C renal, 325 nM; with SR leukemia, 142 nM. Moreover, the TGI in the assay with HCC-2998 colon was found to be 4390 nM; with HCT-15 colon, 3820 nM; with HT29 colon, 2180 nM; in the assay on M14 melanoma it was 1720 nM; in the assay on MCF7 breast it was 1110 nM; with OVCAR-3 ovarian, 3910 nM. For the same compound, the TGI with OVCAR-8 ovarian is 3870 nM; with RXF 393 renal, 1790 nM; in the assay on SN12C renal, 2070 nM; in the assay with SR leukemia, 11400 nM.

Regarding `C=C1CC[C@@H]2[C@](C)(COC(C)=O)[C@H](OC(C)=O)CC[C@@]2(C)[C@@H]1CC(Nc1ccc(S(=O)(=O)NC(C)=O)cc1)C1=CCOC1=O` (stereo not given in full), the GI50 is 7510 nM in the assay on HCC-2998 colon; 1530 nM with HCT-15 colon; 1570 nM with HT29 colon; 2860 nM in the assay on M14 melanoma; 1920 nM in the assay with MCF7 breast; 1490 nM in the assay with OVCAR-3 ovarian. For the same compound, the GI50 in the assay with OVCAR-8 ovarian was 2250 nM; with RXF 393 renal, 1960 nM; in the assay on SN12C renal it was 1780 nM; in the assay on SR leukemia, 991 nM. Further, the TGI with HCC-2998 colon is 17300 nM; in the assay with HCT-15 colon, 4360 nM; with HT29 colon, 3550 nM; with M14 melanoma, 11900 nM; with MCF7 breast it was 11300 nM; in the assay on OVCAR-3 ovarian, 3020 nM. For the same compound, the TGI amounted to 8420 nM with OVCAR-8 ovarian, 4690 nM in the assay on RXF 393 renal, 5400 nM with SN12C renal and 18100 nM in the assay on SR leukemia.

As for `O=C(Cc1ccc(/C=C/C(=O)c2ncc[nH]2)cc1)Nc1ccc(F)cc1`, the GI50 in the assay on HCC-2998 colon was 5430 nM; with HCT-15 colon, 1150 nM; in the assay on HT29 colon, 1150 nM; with M14 melanoma, 5980 nM; in the assay on MCF7 breast, 995 nM; in the assay with OVCAR-3 ovarian it was 1700 nM. In addition, the GI50 was 5080 nM in the assay with OVCAR-8 ovarian, 3440 nM in the assay on RXF 393 renal, 2930 nM in the assay with SN12C renal and 1110 nM in the assay with SR leukemia. The TGI in the assay with HCC-2998 colon came to 10900 nM; with HCT-15 colon, 7370 nM; with HT29 colon, 4450 nM; in the assay on M14 melanoma it was 17600 nM; in the assay on MCF7 breast, 4620 nM; with OVCAR-3 ovarian it was 6010 nM. Moreover, the TGI in the assay on OVCAR-8 ovarian was more than 33300 nM; in the assay with RXF 393 renal, 8920 nM; in the assay with SN12C renal it was 27100 nM; with SR leukemia it was 6410 nM.

For `CCOC(=O)c1cc(C(=O)c2cc(OC)c(OC)c(OC)c2)n2ncccc12`, the GI50 in the assay with HCC-2998 colon is 2100 nM; in the assay on HCT-15 colon it was 251 nM; in the assay on HT29 colon, 245 nM; with M14 melanoma, 229 nM; with MCF7 breast, 131 nM; with OVCAR-3 ovarian, 145 nM. Besides, the GI50 was 584 nM with OVCAR-8 ovarian, 215 nM with RXF 393 renal, 821 nM with SN12C renal and 126 nM in the assay on SR leukemia. In addition, the TGI with HCC-2998 colon is more than 100000 nM; in the assay with HCT-15 colon it was more than 100000 nM; with HT29 colon, more than 100000 nM; in the assay on M14 melanoma it was more than 100000 nM; with MCF7 breast, more than 100000 nM; in the assay with OVCAR-3 ovarian, 1840 nM. In addition, the TGI was more than 100000 nM in the assay on OVCAR-8 ovarian, 1840 nM with RXF 393 renal, more than 100000 nM in the assay with SN12C renal and more than 100000 nM in the assay with SR leukemia.

In the case of `O=c1c2c(=NCCN3CCCC3)cc3c(=O)n(CCCN4CCOCC4)c(=O)c4c(-c5ccc(CN6CCCC6)cc5)cc(c(O)n1CCCN1CCOCC1)c2c4-3`, the GI50 was 55.6 nM in the assay on HCC-2998 colon; 66.4 nM with HCT-15 colon; less than 11.5 nM with HT29 colon; 136 nM in the assay on M14 melanoma; 28.4 nM in the assay with MCF7 breast; 24.4 nM in the assay on OVCAR-3 ovarian. Moreover, the GI50 in the assay on OVCAR-8 ovarian is less than 25.5 nM; with RXF 393 renal it was 20.4 nM; with SN12C renal it was less than 22.1 nM; in the assay with SR leukemia, less than 10.8 nM. For the same compound, the TGI in the assay on HCC-2998 colon was 284 nM; in the assay with HCT-15 colon, 1110 nM; with HT29 colon, 413 nM; in the assay with M14 melanoma, 641 nM; in the assay on MCF7 breast, 446 nM; in the assay on OVCAR-3 ovarian, 109 nM. In addition, the TGI worked out at 2240 nM with OVCAR-8 ovarian, 77.9 nM in the assay with RXF 393 renal, 1370 nM in the assay on SN12C renal and 11100 nM with SR leukemia.

Consider `CCOC(=O)c1ccc(NC(=O)Nc2nncs2)cc1`, for which the GI50 was 571 nM in the assay on HCC-2998 colon; 68.8 nM in the assay with HCT-15 colon; 189 nM in the assay on HT29 colon; 104 nM with M14 melanoma; 116 nM in the assay on MCF7 breast; 96.3 nM in the assay on OVCAR-3 ovarian. The GI50 in the assay on OVCAR-8 ovarian was 371 nM; in the assay on RXF 393 renal, 140 nM; with SN12C renal it was 662 nM; in the assay with SR leukemia, 52.7 nM. Also, the TGI with HCC-2998 colon is 8240 nM; in the assay with HCT-15 colon it was more than 100000 nM; in the assay on HT29 colon it was 10900 nM; in the assay with M14 melanoma, 3020 nM; in the assay with MCF7 breast, more than 32900 nM; in the assay on OVCAR-3 ovarian, 415 nM. The TGI with OVCAR-8 ovarian turned out to be 13500 nM; in the assay on RXF 393 renal it was 489 nM; in the assay on SN12C renal, 16100 nM; with SR leukemia, 24300 nM.

Values taken from PubChem BioAssay (NCI).
